Measured values as given in PubChem BioAssay AID248 (DTP/NCI, 2004).
Toxic doses and inconclusive results are not listed. No stated cut-off is given here; in the data, active means T/C of 150% or more; inactive means T/C below 125%.

Test system: L1210 leukemia ip in BDF1 mice, survival T/C
Assay: NCI In Vivo Anticancer Drug Screen. Data for tumor model L1210 Leukemia (intraperitoneal) in B6D2F1 (BDF1) mice
Conditions: endpoint: mean survival time, higher = longer survival
Summary of the method: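 Read-out is survival time, reported as the treated-group measurement over the vehicle-control measurement.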

[1] = dose: 100.0 mg/kg/injection, schedule: Q01DX001 (ip), vehicle: carboxymethylcellulose (CMC)
[2] = dose: 200.0 mg/kg/injection, schedule: Q01DX001 (ip), vehicle: carboxymethylcellulose (CMC)
[3] = dose: 400.0 mg/kg/injection, schedule: Q01DX001 (ip), vehicle: carboxymethylcellulose (CMC)
[4] = dose: 100.0 mg/kg/injection, schedule: Q01DX009 (ip), vehicle: Klucel (hydroxypropylcellulose) (HPC)
[5] = dose: 200.0 mg/kg/injection, schedule: Q01DX009 (ip), vehicle: Klucel (hydroxypropylcellulose) (HPC)
[6] = dose: 100.0 mg/kg/injection, schedule: Q04DX002 (ip), vehicle: Klucel (hydroxypropylcellulose) (HPC)
[7] = dose: 200.0 mg/kg/injection, schedule: Q04DX002 (ip), vehicle: Klucel (hydroxypropylcellulose) (HPC)
[8] = dose: 400.0 mg/kg/injection, schedule: Q04DX002 (ip), vehicle: Klucel (hydroxypropylcellulose) (HPC)
[9] = dose: 50.0 mg/kg/injection, schedule: Q01DX001 (ip), vehicle: saline
[10] = dose: 100.0 mg/kg/injection, schedule: Q01DX001 (ip), vehicle: saline
[11] = dose: 200.0 mg/kg/injection, schedule: Q01DX001 (ip), vehicle: saline
[12] = dose: 400.0 mg/kg/injection, schedule: Q01DX001 (ip), vehicle: saline
[13] = dose: 100.0 mg/kg/injection, schedule: Q04DX003 (ip), vehicle: water
[14] = dose: 200.0 mg/kg/injection, schedule: Q04DX003 (ip), vehicle: water
[15] = dose: 400.0 mg/kg/injection, schedule: Q04DX003 (ip), vehicle: water
[16] = dose: 50.0 mg/kg/injection, schedule: Q01DX009 (ip), vehicle: saline with Tween-80
[17] = dose: 25.0 mg/kg/injection, schedule: Q04DX003 (ip), vehicle: saline
[18] = dose: 50.0 mg/kg/injection, schedule: Q04DX003 (ip), vehicle: saline
[19] = dose: 50.0 mg/kg/injection, schedule: Q01DX001 (ip), vehicle: carboxymethylcellulose (CMC)

Measured: T/C

Cc1ccc(C(=O)CC(C(=O)c2ccccc2)c2ccccc2)cc1 (centres undefined)
inactive: dose: 75.0 mg/kg/injection, schedule: Q01DX009 (ip), vehicle: Klucel (hydroxypropylcellulose) (HPC) 92 % of control | dose: 100.0 mg/kg/injection, schedule: Q04DX003 (ip), vehicle: Klucel (hydroxypropylcellulose) (HPC) 94 % of control | dose: 150.0 mg/kg/injection, schedule: Q01DX009 (ip), vehicle: Klucel (hydroxypropylcellulose) (HPC) 95 % of control | dose: 200.0 mg/kg/injection, schedule: Q04DX003 (ip), vehicle: Klucel (hydroxypropylcellulose) (HPC) 104 % of control | dose: 300.0 mg/kg/injection, schedule: Q01DX009 (ip), vehicle: Klucel (hydroxypropylcellulose) (HPC) 95 % of control | dose: 400.0 mg/kg/injection, schedule: Q04DX003 (ip), vehicle: Klucel (hydroxypropylcellulose) (HPC) 98 % of control

OCC(O)C(O)C(O)C(O)CNC(CO)(CO)CO (centres undefined)
inactive: dose: 100.0 mg/kg/injection, schedule: Q04DX002 (ip), vehicle: saline 104 % of control | dose: 200.0 mg/kg/injection, schedule: Q04DX002 (ip), vehicle: saline 88 % of control | dose: 400.0 mg/kg/injection, schedule: Q04DX002 (ip), vehicle: saline 95 % of control

CCOC=Nc1cc(-n2cnc3c(Cl)ncnc32)ccc1C
inactive: [1] 87 % of control | [2] 98 % of control | [3] 96 % of control

CN1C=CC(=Cc2ccccc2)C=C1
inactive: dose: 12.5 mg/kg/injection, schedule: Q04DX002 (ip), vehicle: Klucel (hydroxypropylcellulose) (HPC) 90 % of control | dose: 25.0 mg/kg/injection, schedule: Q04DX002 (ip), vehicle: Klucel (hydroxypropylcellulose) (HPC) 107 % of control | dose: 50.0 mg/kg/injection, schedule: Q04DX002 (ip), vehicle: Klucel (hydroxypropylcellulose) (HPC) 107 % of control

[CH3][Pb]([CH3])([CH3])[O]C(=O)C(F)(F)F
inactive: dose: 12.5 mg/kg/injection, schedule: Q04DX002 (ip), vehicle: saline 90 % of control

ClC1=C(Cl)C(Cl)(Cl)C1(Cl)Cl
inactive: dose: 75.0 mg/kg/injection, schedule: Q01DX001 (ip), vehicle: carboxymethylcellulose (CMC) 109 % of control

O=Nc1ccc(O)c2ccccc12
inactive: dose: 50.0 mg/kg/injection, schedule: Q01DX009 (ip), vehicle: Klucel (hydroxypropylcellulose) (HPC) 100 % of control | [4] 100 % of control | [5] 95 % of control

Nc1nc(=O)n(C2OC(CO)C(O)C2O)c2nc(I)[nH]c12 (centres undefined)
inactive: dose: 50.0 mg/kg/injection, schedule: Q01DX005 (ip), vehicle: saline 100 % of control | dose: 100.0 mg/kg/injection, schedule: Q01DX005 (ip), vehicle: saline 107 % of control

O=C(NCCc1ccccc1)c1ccc(Cl)cc1
inactive: [6] 115 % of control | [7] 92 % of control | [8] 89 % of control

O/N=C/c1ccc2c(c1)OCO2
inactive: [9] 96 % of control | [10] 96 % of control | dose: 100.0 mg/kg/injection, schedule: Q04DX002 (ip), vehicle: gum acacia 106 % of control | [11] 102 % of control | dose: 200.0 mg/kg/injection, schedule: Q04DX002 (ip), vehicle: gum acacia 110 % of control | [12] 96 % of control | dose: 400.0 mg/kg/injection, schedule: Q04DX002 (ip), vehicle: gum acacia 92 % of control

ClCc1ccc(OCc2ccccc2)c(OCc2ccccc2)c1
inactive: [13] 104 % of control | [14] 100 % of control | [15] 102 % of control

Nc1ccc2sc3ccccc3c2c1
inactive: [16] 106 % of control | dose: 100.0 mg/kg/injection, schedule: Q01DX009 (ip), vehicle: saline with Tween-80 105 % of control | dose: 100.0 mg/kg/injection, schedule: Q04DX003 (ip), vehicle: saline with Tween-80 95 % of control | dose: 200.0 mg/kg/injection, schedule: Q04DX003 (ip), vehicle: saline with Tween-80 104 % of control

NN=O
inactive: [10] 97 % of control | [11] 101 % of control

O=C(O)CNCc1cccnc1
inactive: dose: 100.0 mg/kg/injection, schedule: Q01DX005 (ip), vehicle: water 94 % of control | [13] 97 % of control | dose: 200.0 mg/kg/injection, schedule: Q01DX005 (ip), vehicle: water 100 % of control | [14] 97 % of control | dose: 400.0 mg/kg/injection, schedule: Q01DX005 (ip), vehicle: water 96 % of control | [15] 104 % of control

Cc1cnc(C#N)c(-n2ccnc2)n1
inactive: dose: 50.0 mg/kg/injection, schedule: Q01DX009 (ip), vehicle: water 107 % of control | dose: 100.0 mg/kg/injection, schedule: Q01DX009 (ip), vehicle: water 94 % of control | [13] 108 % of control | dose: 200.0 mg/kg/injection, schedule: Q01DX009 (ip), vehicle: water 92 % of control | [14] 98 % of control

O=C1C=CC(=O)c2c1ccc1ccccc21
inactive: dose: 12.5 mg/kg/injection, schedule: Q04DX003 (ip), vehicle: saline 102 % of control | [17] 96 % of control | [18] 101 % of control

CSc1nc(N)c(N=Nc2ccc(S(=O)(=O)Nc3ccccn3)cc2)c(=O)[nH]1
inactive: [1] 92 % of control | [2] 101 % of control | [3] 95 % of control

COc1ccccc1/C=C\C=O
inactive: [1] 103 % of control | [2] 100 % of control | [3] 97 % of control

N#CC/C(C#N)=C/OC(=O)c1ccc(Cl)cc1
inactive: [4] 118 % of control | [5] 124 % of control | dose: 400.0 mg/kg/injection, schedule: Q01DX009 (ip), vehicle: Klucel (hydroxypropylcellulose) (HPC) 115 % of control

CCC(C)(N)C(=O)O (centres undefined)
inactive: [10] 102 % of control | [11] 106 % of control | [12] 102 % of control

CS(=O)(=O)ON1C(=O)c2ccccc2C1=O
inactive: dose: 6.25 mg/kg/injection, schedule: Q01DX009 (ip), vehicle: saline with Tween-80 94 % of control | dose: 12.5 mg/kg/injection, schedule: Q01DX009 (ip), vehicle: saline with Tween-80 98 % of control | dose: 25.0 mg/kg/injection, schedule: Q01DX009 (ip), vehicle: saline with Tween-80 94 % of control | [17] 91 % of control | [18] 93 % of control

Nc1ccc(C(=O)N/N=C/C=C/c2ccccc2)cc1
inactive: [6] 105 % of control | [7] 96 % of control | [8] 99 % of control

Cc1cccc(C2=N/C(=C\c3cccc([N+](=O)[O-])c3)C(=O)O2)c1
inactive: [6] 92 % of control | [7] 92 % of control | [8] 100 % of control

COC1=CCC2=C(C1)CC(C)O2 (centres undefined)
inactive: dose: 100.0 mg/kg/injection, schedule: Q04DX003 (ip), vehicle: acetone 93 % of control | dose: 200.0 mg/kg/injection, schedule: Q04DX003 (ip), vehicle: acetone 102 % of control | dose: 400.0 mg/kg/injection, schedule: Q04DX003 (ip), vehicle: acetone 93 % of control

CCOC(=O)/C=C(/C)C#N
inactive: [1] 103 % of control | [2] 97 % of control | [3] 98 % of control

O=C1C=C(c2ccccc2)C(c2ccccc2)=C1
inactive: [19] 101 % of control | [1] 95 % of control | [2] 92 % of control | [3] 103 % of control

CC(C)=CCC/C(C)=C/CN1C(=O)C=CC1=O
inactive: dose: 12.5 mg/kg/injection, schedule: Q01DX009 (ip), vehicle: water 91 % of control | dose: 25.0 mg/kg/injection, schedule: Q01DX009 (ip), vehicle: water 86 % of control | dose: 25.0 mg/kg/injection, schedule: Q04DX003 (ip), vehicle: water 97 % of control | dose: 50.0 mg/kg/injection, schedule: Q04DX003 (ip), vehicle: water 98 % of control | [13] 104 % of control

Nc1ccc2cc(O)ccc2c1
inactive: [16] 94 % of control

Ic1cccc(/C=N/Nc2nnc(N/N=C/c3cccc(I)c3)c3ccccc23)c1
inactive: [9] 102 % of control | [10] 102 % of control | [11] 102 % of control | [12] 108 % of control

NC(=O)Nc1ccc(Br)cc1Br
inactive: [6] 102 % of control | [7] 94 % of control

CCN(CC)CCOCC(=O)Nc1c(C)cccc1Cl
inactive: dose: 100.0 mg/kg/injection, schedule: Q04DX003 (ip), vehicle: saline sonified 93 % of control | dose: 200.0 mg/kg/injection, schedule: Q04DX003 (ip), vehicle: saline sonified 106 % of control

O=C1C(Br)=C(Br)c2ccccc21
inactive: [19] 100 % of control | [1] 99 % of control
